Assays:
[1] = biological target: T1, adrenergic β receptors (β2) (Canis lupus familiaris, UniProt P54833); assay: Antagonism of the effects of isoprenaline: hypertension (so in the source) (β2), anaesthetized dog, intravenous; type: in vivo; conditions: 50% inhibition of hypertension (β2) induced by intravenous isoprenaline, i.v., read-out: ID 50 isoprenaline β2
T1 construct: from tissue; host or cells: whole anaesthetized dog (in vivo, systemic arterial pressure)
Experimental: (§1) The dog is anaesthetized with sodium pentobarbital administered intravenously at the dose of 30 mg/kg. A canula placed in the short saphenous vein allows the products to be injected intravenously. The animal is intubed and breathes spontaneously.
(§2) The cardiac frequency and the systemic arterial pressure are studied and the variations of these parameters are observed after intravenous injection of the product to be tested, each product being injected at increasing doses.
(§3) The antagonism of the products vis-a-vis the β stimulant cardiovascular effects of isoprenaline on the adrenergic β receptors was sought. The results are shown in Table below and expressed in ID 50: this is the dose expressed in mg/kg which provokes 50% inhibition of tachycardia (β1) and of hypertension (β2) induced by the isoprenaline administered by intravenous route.

[2] = biological target: T2, adrenergic β receptors (β1) (Canis lupus familiaris, UniProt P79148); assay: Antagonism of the effects of isoprenaline: tachycardia (β1), anaesthetized dog, intravenous; type: in vivo; conditions: 50% inhibition of tachycardia (β1) induced by intravenous isoprenaline, i.v., read-out: ID 50 isoprenaline β1
T2 construct: The dog is anaesthetized with sodium pentobarbital; from tissue; host or cells: whole anaesthetized dog (in vivo, heart rate)
T2 sequence (P79148 whole entry): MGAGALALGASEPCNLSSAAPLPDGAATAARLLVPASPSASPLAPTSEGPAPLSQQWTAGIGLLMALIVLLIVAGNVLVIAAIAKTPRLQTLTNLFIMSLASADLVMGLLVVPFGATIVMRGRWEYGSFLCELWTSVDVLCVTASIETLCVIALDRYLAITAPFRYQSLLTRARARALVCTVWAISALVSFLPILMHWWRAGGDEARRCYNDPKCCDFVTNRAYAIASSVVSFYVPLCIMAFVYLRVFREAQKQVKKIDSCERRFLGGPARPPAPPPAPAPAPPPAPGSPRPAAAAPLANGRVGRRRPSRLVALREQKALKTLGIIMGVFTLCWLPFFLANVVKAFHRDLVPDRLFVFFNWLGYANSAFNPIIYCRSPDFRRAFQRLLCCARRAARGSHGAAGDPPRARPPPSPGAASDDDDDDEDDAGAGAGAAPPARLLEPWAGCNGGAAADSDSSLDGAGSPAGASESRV
Experimental: as §1, §2, §3

T1 sequence (P54833 whole entry): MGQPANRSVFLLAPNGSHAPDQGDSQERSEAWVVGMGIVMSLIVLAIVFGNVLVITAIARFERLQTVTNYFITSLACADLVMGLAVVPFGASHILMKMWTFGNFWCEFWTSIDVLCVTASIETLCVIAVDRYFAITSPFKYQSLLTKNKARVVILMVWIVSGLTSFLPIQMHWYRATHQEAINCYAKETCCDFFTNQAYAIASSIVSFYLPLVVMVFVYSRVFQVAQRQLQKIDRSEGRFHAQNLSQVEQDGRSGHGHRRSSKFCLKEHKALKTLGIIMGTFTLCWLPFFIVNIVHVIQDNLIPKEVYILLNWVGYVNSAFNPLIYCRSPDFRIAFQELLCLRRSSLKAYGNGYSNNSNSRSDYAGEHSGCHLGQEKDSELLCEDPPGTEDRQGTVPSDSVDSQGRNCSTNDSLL

Row | ED50 [1] | ED50 [2] | SMILES
1 | 0.03 mg/kg |  | CC(C)(C)NCC(O)COc1cccc2c1C(=O)CCC2 (centres unmarked) [compound 7285, 1-(8-oxo 5,6,7,8-tetrahydro 1-naphthyloxy) 2-hydroxy 3-tertiobutylamino propane]
2 | 0.01 mg/kg | 0.1 mg/kg | Cc1ccc(OCC(O)CNC(C)(C)C)c2c1CCCC2=O (centres unmarked) [compound 7706]
3 | 0.03 mg/kg | 0.1 mg/kg | C#CC(C)(C)NCC(O)COc1ccc(C)c2c1C(=O)CCC2 (centres unmarked) [compound 7760]

— US4435426A, “Ethers of phenol active on the cardiovascular system, process for preparing same and use thereof in drugs” (Societe Anonyme dite: Sanofi, priority 1981, dated 1984)
